From patent publication US10040781B2, “Tank-binding kinase inhibitor compounds” (Gilead Sciences, Inc., priority 2014, dated 2018)
Where two headings read alike, the source gives them in different places.

How the values were obtained:
IKKε = IKKε (Homo sapiens (Human), UniProt Q14164); test: IKKε TR-FRET enzymatic assay; assay type: biochemical; settings: read-out: IKKe IC50
TBK1 = TBK1 (Homo sapiens (Human), UniProt Q9UHD2); test: TBK1 TR-FRET enzymatic assay;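 also: phosphorylation of a biotinylated Ser/Thr peptide by purified full-length recombinant TBK1, read by TR-FRET after 240 min at 25 °C, IC50 is the geometric mean of at least four runs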
Experimental: Enzymatic activity of IKKε and TBK1 was measured using a homogeneous time resolved fluorescence resonance energy transfer (TR-FRET) assay that monitors enzyme dependent phosphorylation of a biotinylated serine/threonine peptide substrate. […] TBK1 and IKKε were expressed and purified as full length recombinant proteins. Detection reagents for the assay were purchased from Cisbio. […] After an assay reaction time of 240 minutes at 25° C., reactions were terminated with EDTA.
All IC50 values represent geometric mean values of a minimum of four determinations.

hJAK2 = hJAK2 (Homo sapiens (Human), UniProt O60674); test: hJAK2 LANCE TR-FRET enzymatic assay; assay type: biochemical; settings: read-out: JAK2 IC50
[1] = TR-FRET, 2×Km ATP, geometric mean of minimum four determinations

Chain of TBK1 (Q9UHD2 whole entry): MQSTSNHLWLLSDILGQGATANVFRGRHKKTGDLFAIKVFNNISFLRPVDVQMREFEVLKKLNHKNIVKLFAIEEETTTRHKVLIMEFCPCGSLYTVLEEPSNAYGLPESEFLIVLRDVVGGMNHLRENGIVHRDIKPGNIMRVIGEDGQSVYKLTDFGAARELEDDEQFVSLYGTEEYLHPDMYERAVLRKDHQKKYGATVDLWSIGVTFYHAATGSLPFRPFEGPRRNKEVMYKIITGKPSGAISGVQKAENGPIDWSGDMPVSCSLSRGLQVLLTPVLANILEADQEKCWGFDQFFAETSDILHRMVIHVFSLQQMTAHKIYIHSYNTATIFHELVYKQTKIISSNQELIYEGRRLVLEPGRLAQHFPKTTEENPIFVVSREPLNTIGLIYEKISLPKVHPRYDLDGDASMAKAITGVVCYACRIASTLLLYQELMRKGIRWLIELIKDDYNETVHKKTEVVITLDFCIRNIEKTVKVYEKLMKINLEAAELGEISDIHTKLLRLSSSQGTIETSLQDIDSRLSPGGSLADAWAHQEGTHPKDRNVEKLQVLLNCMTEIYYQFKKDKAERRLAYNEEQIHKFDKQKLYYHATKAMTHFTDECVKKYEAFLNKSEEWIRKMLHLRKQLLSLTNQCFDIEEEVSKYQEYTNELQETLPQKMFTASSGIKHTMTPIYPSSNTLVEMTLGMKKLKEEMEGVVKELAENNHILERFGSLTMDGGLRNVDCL
Chain of IKKε (Q14164 whole entry): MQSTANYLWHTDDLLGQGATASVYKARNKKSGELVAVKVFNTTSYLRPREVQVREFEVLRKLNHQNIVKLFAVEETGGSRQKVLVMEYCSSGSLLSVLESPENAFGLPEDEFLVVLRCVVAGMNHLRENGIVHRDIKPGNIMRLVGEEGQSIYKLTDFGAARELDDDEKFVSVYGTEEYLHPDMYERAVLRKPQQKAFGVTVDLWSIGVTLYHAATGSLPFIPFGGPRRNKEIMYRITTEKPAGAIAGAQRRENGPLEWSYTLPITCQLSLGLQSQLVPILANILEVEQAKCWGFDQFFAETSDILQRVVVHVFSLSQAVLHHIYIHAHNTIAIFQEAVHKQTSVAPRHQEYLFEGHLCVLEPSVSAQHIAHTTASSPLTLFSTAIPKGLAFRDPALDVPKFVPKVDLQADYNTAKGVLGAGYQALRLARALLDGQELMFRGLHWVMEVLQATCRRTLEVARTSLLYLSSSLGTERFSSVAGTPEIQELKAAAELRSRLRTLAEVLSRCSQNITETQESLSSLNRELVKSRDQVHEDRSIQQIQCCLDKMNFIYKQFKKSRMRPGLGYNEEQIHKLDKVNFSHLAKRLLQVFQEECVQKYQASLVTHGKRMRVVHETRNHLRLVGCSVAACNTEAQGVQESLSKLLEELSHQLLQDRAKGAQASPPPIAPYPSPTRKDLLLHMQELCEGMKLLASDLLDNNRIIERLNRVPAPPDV
Chain of hJAK2 (O60674 whole entry): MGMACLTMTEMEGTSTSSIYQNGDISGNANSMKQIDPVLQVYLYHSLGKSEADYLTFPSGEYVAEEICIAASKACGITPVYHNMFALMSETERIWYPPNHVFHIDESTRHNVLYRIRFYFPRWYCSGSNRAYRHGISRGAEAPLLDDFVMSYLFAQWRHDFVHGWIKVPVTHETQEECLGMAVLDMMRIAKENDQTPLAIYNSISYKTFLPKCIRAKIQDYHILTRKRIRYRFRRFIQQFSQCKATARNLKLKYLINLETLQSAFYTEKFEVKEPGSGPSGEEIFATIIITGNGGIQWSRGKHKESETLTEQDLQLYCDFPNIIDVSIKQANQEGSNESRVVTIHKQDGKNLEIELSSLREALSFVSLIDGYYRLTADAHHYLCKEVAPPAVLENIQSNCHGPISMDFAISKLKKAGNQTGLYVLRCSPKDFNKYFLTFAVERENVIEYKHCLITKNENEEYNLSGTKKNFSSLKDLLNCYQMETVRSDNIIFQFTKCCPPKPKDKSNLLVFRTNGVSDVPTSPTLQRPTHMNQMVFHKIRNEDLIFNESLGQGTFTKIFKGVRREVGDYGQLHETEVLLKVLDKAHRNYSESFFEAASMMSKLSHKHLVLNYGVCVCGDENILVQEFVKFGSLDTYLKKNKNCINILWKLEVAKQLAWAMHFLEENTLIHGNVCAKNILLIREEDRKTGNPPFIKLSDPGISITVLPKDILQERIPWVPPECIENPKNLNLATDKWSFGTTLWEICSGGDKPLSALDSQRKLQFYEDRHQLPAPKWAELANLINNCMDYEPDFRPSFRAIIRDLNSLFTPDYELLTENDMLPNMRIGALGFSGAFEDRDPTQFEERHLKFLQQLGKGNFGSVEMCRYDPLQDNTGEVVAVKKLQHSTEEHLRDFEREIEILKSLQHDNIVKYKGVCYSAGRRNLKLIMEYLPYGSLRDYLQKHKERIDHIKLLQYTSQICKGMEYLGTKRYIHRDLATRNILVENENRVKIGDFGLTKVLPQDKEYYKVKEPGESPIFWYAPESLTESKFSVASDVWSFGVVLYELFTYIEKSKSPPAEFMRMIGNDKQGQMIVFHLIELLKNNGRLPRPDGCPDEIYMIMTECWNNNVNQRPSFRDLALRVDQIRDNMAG

Compound	IC50 (IKKε; [1]) [nM]	IC50 (TBK1) [nM]	IC50 (hJAK2) [nM]	IC50 (IKKε) [nM]
CC(C)[C@H](O)C(=O)N1CC[C@H](Oc2ccc(-c3ncnc(Nc4ccc(N5CCN(C6COC6)CC5)cc4)n3)cc2C#N)[C@H](F)C1 [Example 461, 2-(((3R,4S)-3-fluoro-1-((S)-2-hydroxy-3-methylbutanoyl)piperidin-4-yl)oxy)-5-(4-((4-(4-(oxetan-3-yl)piperazin-1-yl)phenyl)amino)-1,3,5-triazin-2-yl)benzonitrile]	63	16	930	–
Cc1ncc(C(=O)N2CC[C@H](Oc3ccc(-c4ncnc(Nc5ccc(N6CCN(C7COC7)CC6)cc5)n4)cc3C#N)[C@H](F)C2)n1C [Example 266, 2-(((3R,4S)-1-(1,2-dimethyl-1H-imidazole-5-carbonyl)-3-fluoropiperidin-4-yl)oxy)-5-(4-((4-(4-(oxetan-3-yl)piperazin-1-yl)phenyl)amino)-1,3,5-triazin-2-yl)benzonitrile]	–	82	387	83
N#Cc1cc(-c2ncnc(Nc3ccc(N4CCN(C5COC5)CC4)cc3)n2)ccc1N1CC(O)C1 [Example 35, 2-(3-hydroxyazetidin-1-yl)-5-(4-((4-(4-(oxetan-3-yl)piperazin-1-yl)phenyl)amino)-1,3,5-triazin-2-yl)benzonitrile]	–	7	166	29
N#Cc1cc(-c2ncnc(Nc3ccc(N4CCN(C5COC5)CC4)cc3)n2)ccc1O[C@@H]1CCN(C(=O)C(F)F)C1 [Example 96, (R)-2-((1-(2,2-difluoroacetyl)pyrrolidin-3-yl)oxy)-5-(4-((4-(4-(oxetan-3-yl)piperazin-1-yl)phenyl)amino)-1,3,5-triazin-2-yl)benzonitrile]	–	21	560	91
N#Cc1cc(-c2ncnc(Nc3ccc(N4CCN(C5COC5)CC4)cc3)n2)ccc1OC1CCN(C(=O)c2ccc[nH]2)CC1(F)F (stereo not drawn) [Example 162, 2-((3,3-difluoro-1-(1H-pyrrole-2-carbonyl)piperidin-4-yl)oxy)-5-(4-((4-(4-(oxetan-3-yl)piperazin-1-yl)phenyl)amino)-1,3,5-triazin-2-yl)benzonitrile]	–	5	583	4
CC(C)(O)c1ccc(Nc2ncnc(-c3ccc(OC4CCOCC4)c(C#N)c3)n2)cc1 [Example 40, 5-(4-((4-(2-hydroxypropan-2-yl)phenyl)amino)-1,3,5-triazin-2-yl)-2-((tetrahydro-2H-pyran-4-yl)oxy)benzonitrile]	–	6	> 1000	23
COc1cc(Nc2ncnc(-c3ccc(OC4CCOCC4)c(C#N)c3)n2)ccc1C1CCN(C2COC2)CC1 [Example 20, 5-(4-((3-methoxy-4-(1-(oxetan-3-yl)piperidin-4-yl)phenyl)amino)-1,3,5-triazin-2-yl)-2-((tetrahydro-2H-pyran-4-yl)oxy)benzonitrile]	–	2	> 1000	2
Cc1c[nH]c(C(=O)N2CC[C@H](Oc3ccc(-c4ncnc(Nc5ccc(N6CCN(C7COC7)CC6)cc5)n4)cc3C#N)[C@H](F)C2)n1 [Example 527, 2-(((3R,4S)-3-fluoro-1-(4-methyl-1H-imidazole-2-carbonyl)piperidin-4-yl)oxy)-5-(4-((4-(4-(oxetan-3-yl)piperazin-1-yl)phenyl)amino)-1,3,5-triazin-2-yl)benzonitrile]	8	5	323	–

More lines, now with the values ahead:

IC50 (IKKε; [1]) [nM]	IC50 (TBK1) [nM]	IC50 (hJAK2) [nM]	IC50 (IKKε) [nM]	Compound
–	3	188	14	C[C@@H](O)C(=O)N1CCC(Oc2ccc(-c3ncnc(Nc4ccc(N5CCN(C6COC6)CC5)cc4)n3)cc2C#N)C(F)(F)C1 (stereo partly drawn) [Example 157, 2-((3,3-difluoro-1-((R)-2-hydroxypropanoyl)piperidin-4-yl)oxy)-5-(4-((4-(4-(oxetan-3-yl)piperazin-1-yl)phenyl)amino)-1,3,5-triazin-2-yl)benzonitrile]
–	3	> 1000	31	N#Cc1cc(-c2ncnc(Nc3cccc(C(O)C(F)(F)F)c3)n2)ccc1OC1CCOCC1 (stereo not drawn) [Example 48, 2-((tetrahydro-2H-pyran-4-yl)oxy)-5-(4-((3-(2,2,2-trifluoro-1-hydroxyethyl)phenyl)amino)-1,3,5-triazin-2-yl)benzonitrile]
–	1	51	17	C[C@H]1C[C@@H](O)CN1c1ccc(-c2ncnc(Nc3ccc(N4CCN(C5COC5)CC4)cc3)n2)cc1C#N [Example 205, 2-((2S,4R)-4-hydroxy-2-methylpyrrolidin-1-yl)-5-(4-((4-(4-(oxetan-3-yl)piperazin-1-yl)phenyl)amino)-1,3,5-triazin-2-yl)benzonitrile]
–	2	185	8	COc1cc(Nc2ncnc(-c3ccc(OC4CCN(C(=O)[C@H](C)O)CC4)c(C#N)c3)n2)ccc1N1CCN(C2COC2)CC1 [Example 281, (S)-2-((1-(2-hydroxypropanoyl)piperidin-4-yl)oxy)-5-(4-((3-methoxy-4-(4-(oxetan-3-yl)piperazin-1-yl)phenyl)amino)-1,3,5-triazin-2-yl)benzonitrile]
–	4	≥ 1000	4	C[C@H](O)C(=O)N1CC[C@H](Oc2ccc(-c3ncnc(Nc4cnn(CC(F)F)c4)n3)cc2C#N)[C@H](F)C1 [Example 352, 5-(4-((1-(2,2-difluoroethyl)-1H-pyrazol-4-yl)amino)-1,3,5-triazin-2-yl)-2-(((3R,4S)-3-fluoro-1-((S)-2-hydroxypropanoyl)piperidin-4-yl)oxy)benzonitrile]
3	3	771	–	N#Cc1cc(-c2ncnc(Nc3ccc(N4CCN(C5COC5)CC4)cc3)n2)ccc1O[C@H]1CCN(C(=O)c2cnco2)C[C@H]1F [Example 473, 2-(((3R,4S)-3-fluoro-1-(oxazole-5-carbonyl)piperidin-4-yl)oxy)-5-(4-((4-(4-(oxetan-3-yl)piperazin-1-yl)phenyl)amino)-1,3,5-triazin-2-yl)benzonitrile]
–	2	463	9	CC1CC(Oc2ccc(-c3ncnc(Nc4ccc(N5CCN(C6COC6)CC5)cc4)n3)cc2C#N)CC(C)N1C(=O)CO (stereo not drawn) [Example 171, 2-((1-(2-hydroxyacetyl)-2,6-dimethylpiperidin-4-yl)oxy)-5-(4-((4-(4-(oxetan-3-yl)piperazin-1-yl)phenyl)amino)-1,3,5-triazin-2-yl)benzonitrile]
2	2	492	–	COCC(=O)N1CC[C@H](Oc2ccc(-c3ncnc(Nc4ccc(N5CCN(C6COC6)CC5)cc4)n3)cc2C#N)[C@H](F)C1 [Example 546, 2-(((3R,4S)-3-fluoro-1-(2-methoxyacetyl)piperidin-4-yl)oxy)-5-(4-((4-(4-(oxetan-3-yl)piperazin-1-yl)phenyl)amino)-1,3,5-triazin-2-yl)benzonitrile]
–	3	185	2	CCn1cc(Nc2ncnc(-c3ccc(O[C@H]4CCN(C(=O)CO)C[C@H]4F)c(C#N)c3)n2)cn1 [Example 360, 5-(4-((1-ethyl-1H-pyrazol-4-yl)amino)-1,3,5-triazin-2-yl)-2-(((3R,4S)-3-fluoro-1-(2-hydroxyacetyl)piperidin-4-yl)oxy)benzonitrile]
